Laboratory results published in PubChem BioAssay AID256 (DTP/NCI, 2004).
“And” between values parts separate entries of the source, which are not always exact repeats. Equal values may be shown once. Toxic doses and inconclusive results are not listed. Rule for the calls: active = survival T/C of 150% or more; inactive = T/C below 125% in these data.

System: CD2F1 mice, L1210 leukemia ip, survival T/C
Assay: NCI In Vivo Anticancer Drug Screen. Data for tumor model L1210 Leukemia (intraperitoneal) in CD2F1 (CDF1) mice
Settings: higher = longer survival
Summary of the method: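 Ratio T/C, where T is the treated-group value and C the vehicle-dosed control value, from mice implanted with a transplantable tumor.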

[1] = endpoint: mean survival time, dose: 12.5 mg/kg/injection, schedule: Q01DX009 (ip), vehicle: saline with Tween-80
[2] = endpoint: mean survival time, dose: 25.0 mg/kg/injection, schedule: Q01DX009 (ip), vehicle: saline with Tween-80
[3] = endpoint: mean survival time, dose: 50.0 mg/kg/injection, schedule: Q01DX009 (ip), vehicle: saline with Tween-80
[4] = endpoint: mean survival time, dose: 200.0 mg/kg/injection, schedule: Q01DX009 (ip), vehicle: saline with Tween-80
[5] = endpoint: mean survival time, dose: 25.0 mg/kg/injection, schedule: Q04DX002 (ip), vehicle: saline with Tween-80
[6] = endpoint: mean survival time, dose: 50.0 mg/kg/injection, schedule: Q04DX002 (ip), vehicle: saline with Tween-80
[7] = endpoint: mean survival time, dose: 100.0 mg/kg/injection, schedule: Q01DX009 (ip), vehicle: saline with Tween-80
[8] = endpoint: mean survival time, dose: 400.0 mg/kg/injection, schedule: Q01DX009 (ip), vehicle: saline with Tween-80
[9] = endpoint: mean survival time, dose: 100.0 mg/kg/injection, schedule: Q04DX003 (ip), vehicle: saline with Tween-80
[10] = endpoint: mean survival time, dose: 200.0 mg/kg/injection, schedule: Q04DX003 (ip), vehicle: saline with Tween-80
[11] = endpoint: mean survival time, dose: 400.0 mg/kg/injection, schedule: Q04DX003 (ip), vehicle: saline with Tween-80
[12] = endpoint: mean survival time, dose: 100.0 mg/kg/injection, schedule: Q01DX001 (ip), vehicle: saline
[13] = endpoint: mean survival time, dose: 100.0 mg/kg/injection, schedule: Q04DX002 (ip), vehicle: saline with Tween-80
[14] = endpoint: mean survival time, dose: 100.0 mg/kg/injection, schedule: Q01DX001 (ip), vehicle: saline with Tween-80
[15] = endpoint: mean survival time, dose: 200.0 mg/kg/injection, schedule: Q01DX001 (ip), vehicle: saline with Tween-80
[16] = endpoint: mean survival time, dose: 400.0 mg/kg/injection, schedule: Q01DX001 (ip), vehicle: saline with Tween-80

Measured: T/C

CC(CN=[N+]=[N-])OC(=O)C(F)(F)F (centres undefined)
inactive: endpoint: mean survival time, dose: 37.5 mg/kg/injection, schedule: Q01DX009 (ip), vehicle: saline 94 % of control | endpoint: mean survival time, dose: 75.0 mg/kg/injection, schedule: Q01DX001 (ip), vehicle: saline 98 % of control | endpoint: mean survival time, dose: 75.0 mg/kg/injection, schedule: Q01DX009 (ip), vehicle: saline 94 % of control | endpoint: mean survival time, dose: 150.0 mg/kg/injection, schedule: Q01DX001 (ip), vehicle: saline 101 % of control

CN(C)C1c2ccccc2-c2ccc(F)cc21 (centres undefined)
inactive: endpoint: mean survival time, dose: 50.0 mg/kg/injection, schedule: Q01DX001 (ip), vehicle: carboxymethylcellulose (CMC) 107 % of control | endpoint: mean survival time, dose: 100.0 mg/kg/injection, schedule: Q01DX001 (ip), vehicle: carboxymethylcellulose (CMC) 113 % of control

COc1cc(OC)c(NC(=O)Nc2c(C)n(C)n(-c3ccccc3)c2=O)cc1Cl
inactive: [1] 91 % of control | [2] 97 % of control | [3] 93 % of control and 97 % of control | [4] 89 % of control

O=C(NCCCCCCNC(=O)Nc1cccc(Cl)c1)Nc1cccc(Cl)c1
inactive: endpoint: mean survival time, dose: 50.0 mg/kg/injection, schedule: Q01DX009 (ip), vehicle: Klucel (hydroxypropylcellulose) (HPC) 94 % of control | endpoint: mean survival time, dose: 100.0 mg/kg/injection, schedule: Q01DX009 (ip), vehicle: Klucel (hydroxypropylcellulose) (HPC) 91 % of control | endpoint: mean survival time, dose: 200.0 mg/kg/injection, schedule: Q01DX009 (ip), vehicle: Klucel (hydroxypropylcellulose) (HPC) 88 % of control

CC12C=CC(=O)C=C1CCCC2 (centres undefined)
inactive: endpoint: mean survival time, dose: 12.5 mg/kg/injection, schedule: Q04DX002 (ip), vehicle: saline with Tween-80 96 % of control | [5] 91 % of control | [6] 96 % of control

O=[N+]([O-])c1ccc(S/C=C/c2ccccc2)cc1
inactive: endpoint: median survival time, dose: 25.0 mg/kg/injection, schedule: Q04DX002 (ip), vehicle: saline with Tween-80 100 % of control | endpoint: median survival time, dose: 50.0 mg/kg/injection, schedule: Q04DX002 (ip), vehicle: saline with Tween-80 110 % of control | endpoint: median survival time, dose: 100.0 mg/kg/injection, schedule: Q04DX002 (ip), vehicle: saline with Tween-80 100 % of control | endpoint: median survival time, dose: 200.0 mg/kg/injection, schedule: Q04DX002 (ip), vehicle: saline with Tween-80 100 % of control

C=CCCCCCCCCC(=O)NN1CCOCC1
inactive: [7] 94 % of control | [4] 91 % of control | [8] 94 % of control

Cc1cc(C)c(NC(=O)c2cccc(Cl)c2)c(C)c1
inactive: [7] 104 % of control | [9] 94 % of control | [4] 98 % of control | [10] 96 % of control | [8] 105 % of control | [11] 88 % of control

Cc1ccc(C(=O)C2CC(Br)C(Br)CC2C(=O)c2ccc(C)cc2)cc1 (centres undefined)
inactive: [7] 90 % of control | [9] 100 % of control | [4] 86 % of control | [10] 100 % of control | [8] 86 % of control | [11] 97 % of control

COc1ccc(OCCOC(=O)Nc2ccc(Cl)cc2C)cc1
inactive: [3] 90 % of control | [7] 96 % of control | [4] 100 % of control

CC1C(=O)C(Br)CC2C1(C)CCC1C2(C)CCC2(C)C3CC(C)(C)CCC3(C)CCC12C (centres undefined)
inactive: [12] 97 % of control | endpoint: mean survival time, dose: 200.0 mg/kg/injection, schedule: Q01DX001 (ip), vehicle: saline 97 % of control | endpoint: mean survival time, dose: 400.0 mg/kg/injection, schedule: Q01DX001 (ip), vehicle: saline 97 % of control

COc1ccccc1NC(=O)Oc1ccccc1-c1ccccc1
inactive: [2] 93 % of control | [5] 98 % of control | [3] 93 % of control | [6] 110 % of control | [7] 93 % of control | [13] 87 % of control and 104 % of control

CC(C)(CCl)C(=O)O
inactive: [3] 110 % of control | [7] 104 % of control | [9] 100 % of control | [4] 93 % of control | [10] 104 % of control

CSc1ccc(NC(C)=O)cc1
inactive: endpoint: mean survival time, dose: 100.0 mg/kg/injection, schedule: Q01DX001 (ip), vehicle: Klucel (hydroxypropylcellulose) (HPC) 94 % of control | endpoint: mean survival time, dose: 200.0 mg/kg/injection, schedule: Q01DX001 (ip), vehicle: Klucel (hydroxypropylcellulose) (HPC) 96 % of control | endpoint: mean survival time, dose: 400.0 mg/kg/injection, schedule: Q01DX001 (ip), vehicle: Klucel (hydroxypropylcellulose) (HPC) 96 % of control

CCN(CC)C(C(=O)Nc1ccccc1)C(=O)Nc1ccccc1
inactive: [7] 98 % of control | [4] 93 % of control | [8] 98 % of control

Oc1ccc(C=NCCN=Cc2ccc(O)cc2O)c(O)c1
inactive: endpoint: mean survival time, dose: 8.0 mg/kg/injection, schedule: Q01DX009 (ip), vehicle: saline with Tween-80 98 % of control | endpoint: mean survival time, dose: 12.0 mg/kg/injection, schedule: Q01DX009 (ip), vehicle: saline with Tween-80 87 % of control | endpoint: mean survival time, dose: 18.0 mg/kg/injection, schedule: Q01DX009 (ip), vehicle: saline with Tween-80 92 % of control | [2] 114 % of control and 96 % of control | [7] 87 % of control | [9] 87 % of control | [11] 88 % of control

CN1CC(=O)NC1=S
inactive: [12] 87 % of control

CCCCOS(=O)OCCCC
inactive: [14] 106 % of control | [15] 102 % of control | [16] 97 % of control

CCCNC(=O)NO
inactive: endpoint: mean survival time, dose: 4.0 mg/kg/injection, schedule: Q03HX024 (ip), vehicle: other 97 % of control | endpoint: mean survival time, dose: 8.0 mg/kg/injection, schedule: Q03HX024 (ip), vehicle: other 97 % of control | endpoint: mean survival time, dose: 16.0 mg/kg/injection, schedule: Q03HX024 (ip), vehicle: other 96 % of control | endpoint: mean survival time, dose: 32.0 mg/kg/injection, schedule: Q03HX024 (ip), vehicle: other 98 % of control | endpoint: mean survival time, dose: 64.0 mg/kg/injection, schedule: Q03HX024 (ip), vehicle: other 97 % of control

COc1ccccc1NC(=O)Nc1cc([N+](=O)[O-])ccc1OC
inactive: [13] 96 % of control | endpoint: mean survival time, dose: 200.0 mg/kg/injection, schedule: Q04DX002 (ip), vehicle: saline with Tween-80 93 % of control | endpoint: mean survival time, dose: 400.0 mg/kg/injection, schedule: Q04DX002 (ip), vehicle: saline with Tween-80 86 % of control

CN(C=O)c1ccccc1C(=O)O
inactive: [14] 98 % of control | [7] 96 % of control | [15] 101 % of control | [4] 91 % of control | [16] 98 % of control | [8] 97 % of control

C1CC[N-]CC1.[Cl][Pt+2][Cl].[NH-]C1CC1
inactive: endpoint: mean survival time, dose: 3.0 mg/kg/injection, schedule: Q04DX003 (ip), vehicle: water 100 % of control | endpoint: mean survival time, dose: 6.25 mg/kg/injection, schedule: Q01DX009 (ip), vehicle: distilled water + Tween-80 120 % of control | endpoint: mean survival time, dose: 6.25 mg/kg/injection, schedule: Q01DX009 (ip), vehicle: water 118 % of control | endpoint: mean survival time, dose: 25.0 mg/kg/injection, schedule: Q01DX009 (ip), vehicle: water 119 % of control | endpoint: mean survival time, dose: 25.0 mg/kg/injection, schedule: Q04DX003 (ip), vehicle: distilled water + Tween-80 90 % of control | endpoint: mean survival time, dose: 25.0 mg/kg/injection, schedule: Q04DX003 (ip), vehicle: water 90 % of control

COc1ccc(Cl)cc1[N+](=O)[O-]
inactive: [9] 97 % of control | [10] 94 % of control | [11] 95 % of control

NC(=S)N/N=C\c1ncccc1OCc1cccc(N)c1
inactive: endpoint: mean survival time, dose: 12.5 mg/kg/injection, schedule: Q01DX009 (ip), vehicle: distilled water + Tween-80 104 % of control | [1] 100 % of control | endpoint: mean survival time, dose: 25.0 mg/kg/injection, schedule: Q01DX009 (ip), vehicle: distilled water + Tween-80 113 % of control and 104 % of control | [2] 116 % of control and 100 % of control and 107 % of control | endpoint: mean survival time, dose: 50.0 mg/kg/injection, schedule: Q01DX009 (ip), vehicle: distilled water + Tween-80 119 % of control and 111 % of control | [3] 101 % of control and 103 % of control and 110 % of control | endpoint: mean survival time, dose: 100.0 mg/kg/injection, schedule: Q01DX009 (ip), vehicle: distilled water + Tween-80 113 % of control and 119 % of control | [7] 117 % of control and 100 % of control and 105 % of control | endpoint: mean survival time, dose: 200.0 mg/kg/injection, schedule: Q01DX009 (ip), vehicle: distilled water + Tween-80 122 % of control | [4] 114 % of control and 117 % of control and 108 % of control | endpoint: mean survival time, dose: 400.0 mg/kg/injection, schedule: Q01DX009 (ip), vehicle: distilled water + Tween-80 117 % of control | [8] 115 % of control and 108 % of control | endpoint: median survival time, dose: 50.0 mg/kg/injection, schedule: Q01DX009 (ip), vehicle: distilled water + Tween-80 109 % of control | endpoint: median survival time, dose: 100.0 mg/kg/injection, schedule: Q01DX009 (ip), vehicle: distilled water + Tween-80 115 % of control | endpoint: median survival time, dose: 200.0 mg/kg/injection, schedule: Q01DX009 (ip), vehicle: distilled water + Tween-80 118 % of control | endpoint: median survival time, dose: 400.0 mg/kg/injection, schedule: Q01DX009 (ip), vehicle: distilled water + Tween-80 124 % of control

CC(=O)N(C)c1ccc(S(=O)(=O)Cl)cc1
inactive: [14] 100 % of control | [15] 105 % of control | [16] 93 % of control

CCCCCCCCCCC(=O)CC
inactive: [9] 100 % of control | [10] 102 % of control | [11] 98 % of control
